Assay results: patent US10030047B2 (Hoffmann-La Roche Inc., priority 2015, dated 2018)
In brackets after ≈: the same amount, converted by molar mass.

test system: A. baumannii strain ATCC19606; test: Minimum inhibitory concentration (MIC) determination, microbroth dilution (CLSI); format: cell-based; settings: Acinetobacter baumannii; A. baumannii ATCC19606; CAMHB; read after 20 hours; >=80% growth inhibition; read-out: ATCC19606 MIC
How it was run: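 After 20 h at 35±2 °C, MIC taken visually and by OD 600 nm as the lowest concentration giving ≥80% growth inhibition. Bacteria (~5×10^5 CFU/ml) were tested per CLSI microbroth dilution against twofold serial compound dilutions in cation-adjusted Mueller Hinton broth.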

Row | MIC | SMILES
1 | 0.25 µg/mL (≈ 0.306 µM) | CN1C(=O)[C@H](CCCCN)NC(=O)[C@H](CCCN)NCc2cccnc2Sc2c(Cl)cc(-c3ccnc(Cl)c3)cc2CNC(=O)[C@@H]1Cc1c[nH]c2ccccc12 [Example 164, (11S,14S,17S)-14-(4-Amino-butyl)-11-(3-amino-propyl)-25-chloro-23-(2-chloro-pyridin-4-yl)-17-(1H-indol-3-ylmethyl)-16-methyl-2-thia-4,10,13,16,19-pentaaza-tricyclo[19.4.0.0*3,8*]pentacosa-1(21),3,5,7,22,24-hexaene-12,15,18-trione]
2 | 4 µg/mL (≈ 5.01 µM) | CN1C(=O)[C@H](CCCCN)NC(=O)[C@H](CCCN)NCc2cccnc2Sc2c(Cl)cc(-c3ccc(O)nc3)cc2CNC(=O)[C@@H]1Cc1c[nH]c2ccccc12 [Example 165, (11S,14S,17S)-14-(4-Amino-butyl)-11-(3-amino-propyl)-25-chloro-23-(6-hydroxy-pyridin-3-yl)-17-(1H-indol-3-ylmethyl)-16-methyl-2-thia-4,10,13,16,19-pentaaza-tricyclo[19.4.0.0*3,8*]pentacosa-1(25),3(8),4,6,21,23-hexaene-12,15,18-trione]
3 | 0.5 µg/mL (≈ 0.606 µM) | CN(C)c1ccc(-c2cc(Cl)c3c(c2)CNC(=O)[C@H](Cc2c[nH]c4ccccc24)N(C)C(=O)[C@H](CCCCN)NC(=O)[C@H](CCCN)NCc2cccnc2S3)cn1 [Example 166, (11S,14S,17S)-14-(4-Amino-butyl)-11-(3-amino-propyl)-25-chloro-23-(6-dimethylamino-pyridin-3-yl)-17-(1H-indol-3-ylmethyl)-16-methyl-2-thia-4,10,13,16,19-pentaaza-tricyclo[19.4.0.0*3,8*]pentacosa-1(25),3(8),4,6,21,23-hexaene-12,15,18-trione]
4 | 32 µg/mL (≈ 41.9 µM) | Cc1cc(-c2cc3c(cn2)Sc2ncccc2CN[C@@H](CCCN)C(=O)N[C@@H](CCCCN)C(=O)N(C)[C@@H](Cc2c[nH]c4ccccc24)C(=O)NC3)ccn1 [Example 167, (7S,10S,13S)-13-((1H-Indol-3-yl)methyl)-10-(4-aminobutyl)-7-(3-aminopropyl)-12-methyl-18-(2-methylpyridin-4-yl)-6,7,9,12,13,15,16-octahydrodipyrido[2,3-b:4′,3′-p][1,5,8,11,14]thiatetraazacycloheptadecine-8,11,14(5H)-trione]
5 | 4 µg/mL (≈ 4.91 µM) | Cc1noc(C)c1-c1cc(Cl)c2c(c1)CNC(=O)[C@H](Cc1c[nH]c3ccccc13)N(C)C(=O)[C@H](CCCCN)NC(=O)[C@H](CCC(N)=O)NCc1cccnc1S2 [Example 169, 3-[(11S,14S,17S)-14-(4-Amino-butyl)-25-chloro-23-(3,5-dimethyl-isoxazol-4-yl)-17-(1H-indol-3-ylmethyl)-16-methyl-12,15,18-trioxo-2-thia-4,10,13,16,19-pentaaza-tricyclo[19.4.0.0*3,8*]pentacosa-1(25),3(8),4,6,21,23-hexaen-11-yl]-propionamide]
6 | 0.5 µg/mL (≈ 0.617 µM) | Cc1cc(-c2cc(Cl)c3c(c2)CNC(=O)[C@H](Cc2c(C)[nH]c4ccccc24)N(C)C(=O)[C@H](CCCCN)NC(=O)[C@H](CCCN)NCc2cccnc2S3)ccn1 [Example 170, (11S,14S,17S)-14-(4-Amino-butyl)-11-(3-amino-propyl)-25-chloro-16-methyl-17-(2-methyl-1H-indol-3-ylmethyl)-23-(2-methyl-pyridin-4-yl)-2-thia-4,10,13,16,19-pentaaza-tricyclo[19.4.0.0*3,8*]pentacosa-1(25),3(8),4,6,21,23-hexaene-12,15,18-trione]
7 | 0.5 µg/mL (≈ 0.605 µM) | COc1cc(-c2cc(Cl)c3c(c2)CNC(=O)[C@H](Cc2c(C)[nH]c4ccccc24)N(C)C(=O)[C@H](CCCCN)NC(=O)[C@H](CCCN)NCc2cccnc2S3)ccn1 [Example 171, (11S,14S,17S)-14-(4-Amino-butyl)-11-(3-amino-propyl)-25-chloro-23-(2-methoxy-pyridin-4-yl)-16-methyl-17-(2-methyl-1H-indol-3-ylmethyl)-2-thia-4,10,13,16,19-pentaaza-tricyclo[19.4.0.0*3,8*]pentacosa-1(25),3(8),4,6,21,23-hexaene-12,15,18-trione]
